Laboratory results reported in patent US10369138B2, “Monobactam organic compounds for the treatment of bacterial infections” (Novartis AG, priority 2014, dated 2019).
Converted amounts (≈) assume the structure as drawn.

Tests used:
[1] = test system: E. coli strain 25922; test: MIC by broth microdilution, E. coli strain 25922; assay type: cell-based; conditions: Escherichia coli, 25922, E. coli strain 25922; read-out: Ec 25922 (MIC)
Method: (§1) Bacterial isolates were cultivated from −70° C. frozen stocks by two consecutive overnight passages at 35° C. in ambient air on 5% blood agar (Remel, Lenexa, Kans.). Quality control and P. aeruginosa ATCC 27853) is from the American Type Culture Collection (ATCC; Rockville, Md.) and PAO1 was received from Dr. K. Poole.
Minimal Inhibitory Concentrations (MICs) were determined by the broth microdilution method in accordance with Clinical and Laboratories Institute (CLSI) guidelines. In brief, fresh overnight bacterial cultures were suspended in sterile saline, and adjusted to a 0.5 McFarland turbidity standard. Bacterial suspensions were then diluted in cation adjusted Mueller-Hinton Broth (MHB II; BBL) to yield a final inoculum of approximately 5×10^5 colony-forming units (CFU)/mL. A master plate of antibiotics was prepared at a concentration equivalent to hundred-fold the highest desired final concentration in 100% dimethyl sulfoxide (DMSO). The master antibiotic plate was then diluted by serial twofold dilution with a multichannel pipette. The resulting dilution series of compounds were diluted 1:10 with sterile water leading to a 10% DMSO final concentration. A volume of 10 μL of the drug dilution series was transferred to 96-well assay plates. Assay plates were inoculated with 90 μL of bacterial suspensions and incubated at 35-37° C. for 20 hrs. The assay plates were read using a microtiter plate reader (Molecular Devices) at 600 nm as well as by visual observation with a reading mirror. The lowest concentration of the compound that prevented visible growth was recorded as the MIC. Performance of the assay was monitored by testing aztreonam against laboratory quality control strains in accordance with guidelines of the CLSI.

[2] = test system: E. coli containing KPC-2; test: MIC by broth microdilution, E. coli containing KPC-2 (Ec KPC2 Iso); assay type: cell-based; conditions: Escherichia coli, read-out: Ec KPC2 Iso (MIC), E. coli containing KPC-2 (carbapenemase from Klebsiella pneumoniae)
Method: as §1
Strain NB27273 (BW25113 pspB::Km^r) was obtained from the Keio transposon insertion collection. The strain has the pspB gene replaced by a kanamycin resistance marker (BW25113 pspB::Km^r). This strain was cured of the transposon in pspB via FLP recombinase using published methodology. The resulting strain, BW25113 pspB, was used as a host for multicopy vectors expressing key β-lactamases. Multicopy plasmids directing constitutive expression of β-lactamases were established as follows: Synthetic, codon optimized genes encoding E. coli KPC2 and SHV12 β-lactamases were made by DNA2.0 (Palo Alto, Calif.). Each of the synthetic fragments were designed to contain NotI and NcoI restriction sites at their termini, allowing ligation into a NotI/NcoI digested pET28a(+) derivative for protein expression. […] The codon optimized nucleotide sequences and relevant primer recognition information is shown below:
The PCR products were then digested with XhoI and EcoRI and ligated into similarly digested plasmid pAH63-pstS(BlaP). Plasmid pAH63-pstS(BlaP) is a derivative of plasmid pAH63 (J Bacteriol: 183(21): 6384-6393) made by cloning the TEM-1 (bla) promoter and signal peptide encoding region from plasmid pBAD (J Bacteriol. 1995 July 177(14):4121-30) into plasmid pAH63. This fragment was PCR amplified from pBAD using primer pair E192 (ttca[…]) (SEQ ID NO:13) and E194 ([…]) (SEQ ID NO:14), digested with PstI and BamHI and inserted into similarly digested plasmid pAH63. Therefore, expression of β-lactamases from pAH63-pstS(BlaP) based constructs is constitutive and the signal sequence is provided to direct these proteins to the periplasm. Plasmid pAH63 based vectors are used for insertion into the genome in single copy, however, to provide higher expression levels to allow more sensitive detection of the susceptibility of compounds to the β-lactamases, the expression inserts contained in these vectors were moved to the replicative multicopy vector pBAD-Kan (J Bacteriol. 1995 July 177(14):4121-30). To accomplish this, the inserts encompassing the β-lactamase genes, with the associated TEM promoter and signal sequences, were PCR amplified from their corresponding vectors using primer E269 (ccg[…]) (SEQ ID NO:15) and E202 (aatc[…]) (SEQ ID NO:16) for the KPC2 construct and E204 (aatc[…]) (SEQ ID NO:17) for the SHV12 construct. These fragments were then digested with XbaI and EcoRI, and each was inserted into pBAD18-kan that had been digested with the same enzymes to generate a pair of multicopy vectors expressing KPC2 and SHV12 respectively. These vectors were transformed into BW25113 pspB to generate strains NB27273-CDY0033 (expressing KPC2) and NB27273-CDY0030 (expressing SHV12). The pBAD18-kan vector also contains the TEM promoter region and signal sequence, (but lacks any intact β-lactamase genes) and was transformed into BW25113 pspB using standard protocols to generate the control strain NB27273-CDY0026. Expression of the β-lactamases was confirmed by verifying decreased susceptibility to example test antibiotics that are known substrates of KPC2 or SHV12. Susceptibility Testing
Minimal Inhibitory Concentrations (MICs) were determined by the broth microdilution method in accordance with Clinical and Laboratories Institute (CLSI) guidelines. In brief, fresh overnight bacterial cultures were suspended in sterile saline, and adjusted to a 0.5 McFarland turbidity standard. Bacterial suspensions were then diluted in cation adjusted Mueller-Hinton Broth (MHB II; BBL) to yield a final inoculum of approximately 5×10^5 colony-forming units (CFU)/mL. […]

SMILES	MIC [1]	MIC [2]
CC(C)(O/N=C(\C(=O)N[C@@H]1C(=O)N(S(=O)(=O)O)[C@@H]1Cn1cc[nH]c1=O)c1csc(N)n1)C(=O)O [Example 87, 2-(((Z)-(1-(2-aminothiazol-4-yl)-2-oxo-2-(((3S,4R)-2-oxo-4-((2-oxo-2,3-dihydro-1H-imidazol-1-yl)methyl)-1-sulfoazetidin-3-yl)amino)ethylidene)amino)oxy)-2-methylpropanoic acid]	1 µg/mL (≈ 1.93 µM)	0.5 µg/mL (≈ 0.966 µM)
N=C(NC1CCNCC1)c1ccc(OC[C@H](O/N=C(\C(=O)N[C@@H]2C(=O)N(S(=O)(=O)O)[C@@H]2Cn2ncc(CN)n2)c2csc(N)n2)C(=O)O)cc1 [Example 84, (S)-2-(((Z)-(2-(((2R,3S)-2-((4-(aminomethyl)-2H-1,2,3-triazol-2-yl)methyl)-4-oxo-1-sulfoazetidin-3-yl)amino)-1-(2-aminothiazol-4-yl)-2-oxoethylidene)amino)oxy)-3-(4-(N-(piperidin-4-yl)carbamimidoyl)phenoxy)propanoic acid]	0.5 µg/mL (≈ 0.68 µM)	0.5 µg/mL (≈ 0.68 µM)
C[C@@H](O/N=C(\C(=O)N[C@@H]1C(=O)N(S(=O)(=O)O)[C@@H]1Cn1cncn1)c1csc(N)n1)C(=O)O [Example 30, (R)-2-(((Z)-(2-(((2R,3S)-2-((1H-1,2,4-triazol-1-yl)methyl)-4-oxo-1-sulfoazetidin-3-yl)amino)-1-(2-aminothiazol-4-yl)-2-oxoethylidene)amino)oxy)propanoic acid]	1 µg/mL (≈ 2.05 µM)	1 µg/mL (≈ 2.05 µM)
NCCNC(=O)NC[C@@H]1CN(C[C@@H]2[C@H](NC(=O)/C(=N\OC3(C(=O)O)CC3)c3csc(N)n3)C(=O)N2S(=O)(=O)O)C(=O)O1 [Example 111, 1-(((Z)-(2-(((2R,3S)-2-(((R)-5-((3-(2-aminoethyl)ureido)methyl)-2-oxooxazolidin-3-yl)methyl)-4-oxo-1-sulfoazetidin-3-yl)amino)-1-(2-aminothiazol-4-yl)-2-oxoethylidene)amino)oxy)cyclopropanecarboxylic acid]	≤ 0.06 µg/mL	≤ 0.06 µg/mL
Nc1nc(/C(=N/OCC(=O)O)C(=O)N[C@@H]2C(=O)N(S(=O)(=O)O)[C@@H]2CN2CCOC2=O)cs1 [Example 21, 2-(((Z)-(1-(2-aminothiazol-4-yl)-2-oxo-2-(((3S,4R)-2-oxo-4-((2-oxooxazolidin-3-yl)methyl)-1-sulfoazetidin-3-yl)amino)ethylidene)amino)oxy)acetic acid]	0.25 µg/mL (≈ 0.508 µM)	0.5 µg/mL (≈ 1.02 µM)
CC(C)(O/N=C(\C(=O)N[C@@H]1C(=O)N(S(=O)(=O)O)[C@@H]1CN1CCN=C1N)c1csc(N)n1)C(=O)O [Example 39, 2-(((Z)-(2-(((2R,3S)-2-((2-amino-4,5-dihydro-1H-imidazol-1-yl)methyl)-4-oxo-1-sulfoazetidin-3-yl)amino)-1-(2-aminothiazol-4-yl)-2-oxoethylidene)amino)oxy)-2-methylpropanoic acid]	64 µg/mL (≈ 123 µM)	> 64 µg/mL
CC(C)(O/N=C(\C(=O)N[C@@H]1C(=O)N(S(=O)(=O)O)[C@@H]1CN1C[C@H](CN)OC1=O)c1csc(N)n1)C(=O)O [Example 58, 2-(((Z)-(2-(((2R,3S)-2-(((S)-5-(aminomethyl)-2-oxooxazolidin-3-yl)methyl)-4-oxo-1-sulfoazetidin-3-yl)amino)-1-(2-aminothiazol-4-yl)-2-oxoethylidene)amino)oxy)-2-methylpropanoic acid]	2 µg/mL (≈ 3.64 µM)	1 µg/mL (≈ 1.82 µM)
CC(NCCCN)c1cnn(C[C@@H]2[C@H](NC(=O)/C(=N\OC3(C(=O)O)CC3)c3csc(N)n3)C(=O)N2S(=O)(=O)O)n1 (stereo partly drawn) [Example 151, 1-(((Z)-(2-(((2R,3S)-2-((4-(1-((3-aminopropyl)amino)ethyl)-2H-1,2,3-triazol-2-yl)methyl)-4-oxo-1-sulfoazetidin-3-yl)amino)-1-(2-aminothiazol-4-yl)-2-oxoethylidene)amino)oxy)cyclopropanecarboxylic acid]	0.5 µg/mL (≈ 0.832 µM)	0.5 µg/mL (≈ 0.832 µM)
CC(C)(O/N=C(\C(=O)N[C@@H]1C(=O)N(S(=O)(=O)O)[C@@H]1Cn1cc(N)cn1)c1csc(N)n1)C(=O)O [Example 35, 2-(((Z)-(2-(((2R,3S)-2-((4-amino-1H-pyrazol-1-yl)methyl)-4-oxo-1-sulfoazetidin-3-yl)amino)-1-(2-aminothiazol-4-yl)-2-oxoethylidene)amino)oxy)-2-methylpropanoic acid]	2 µg/mL (≈ 3.87 µM)	1 µg/mL (≈ 1.94 µM)
Nc1nc(/C(=N/OC2(C(=O)O)CCC2)C(=O)N[C@@H]2C(=O)N(S(=O)(=O)O)[C@@H]2Cn2cncn2)cs1 [Example 32, 1-(((Z)-(2-(((2R,3S)-2-((1H-1,2,4-triazol-1-yl)methyl)-4-oxo-1-sulfoazetidin-3-yl)amino)-1-(2-aminothiazol-4-yl)-2-oxoethylidene)amino)oxy)cyclobutanecarboxylic acid]	2 µg/mL (≈ 3.89 µM)	1 µg/mL (≈ 1.94 µM)
NCCOC(=O)NCc1cnn(C[C@@H]2[C@H](NC(=O)/C(=N\OC3(C(=O)O)CC3)c3csc(N)n3)C(=O)N2S(=O)(=O)O)n1 [Example 133, 1-(((Z)-(2-(((2R,3S)-2-((4-((((2-aminoethoxy)carbonyl)amino)methyl)-2H-1,2,3-triazol-2-yl)methyl)-4-oxo-1-sulfoazetidin-3-yl)amino)-1-(2-aminothiazol-4-yl)-2-oxoethylidene)amino)oxy)cyclopropanecarboxylic acid]	1 µg/mL (≈ 1.62 µM)	0.5 µg/mL (≈ 0.811 µM)
CC(C)(O/N=C(\C(=O)N[C@@H]1C(=O)N(S(=O)(=O)O)[C@@H]1Cn1cnc(CNC(=N)N)n1)c1csc(N)n1)C(=O)O [Example 11, 2-(((Z)-(1-(2-aminothiazol-4-yl)-2-(((2R,3S)-2-((3-(guanidinomethyl)-1H-1,2,4-triazol-1-yl)methyl)-4-oxo-1-sulfoazetidin-3-yl)amino)-2-oxoethylidene)amino)oxy)-2-methylpropanoic acid]	4 µg/mL (≈ 6.97 µM)	4 µg/mL (≈ 6.97 µM)
Cc1ncnn1C[C@@H]1[C@H](NC(=O)/C(=N\OC(C)(C)C(=O)O)c2csc(N)n2)C(=O)N1S(=O)(=O)O [Example 61, 2-(((Z)-(1-(2-aminothiazol-4-yl)-2-(((2R,3S)-2-((5-methyl-1H-1,2,4-triazol-1-yl)methyl)-4-oxo-1-sulfoazetidin-3-yl)amino)-2-oxoethylidene)amino)oxy)-2-methylpropanoic acid]	8 µg/mL (≈ 15.5 µM)	2 µg/mL (≈ 3.87 µM)
Cc1nn(C[C@@H]2[C@H](NC(=O)/C(=N\OC3(C(=O)O)CC3)c3csc(N)n3)C(=O)N2S(=O)(=O)O)nc1CNC(=N)NCCCN [Example 144, 1-(((Z)-(2-(((2R,3S)-2-((4-((3-(3-aminopropyl)guanidino)methyl)-5-methyl-2H-1,2,3-triazol-2-yl)methyl)-4-oxo-1-sulfoazetidin-3-yl)amino)-1-(2-aminothiazol-4-yl)-2-oxoethylidene)amino)oxy)cyclopropanecarboxylic acid]	1 µg/mL (≈ 1.56 µM)	1 µg/mL (≈ 1.56 µM)
